Test results published in patent US12281138B2, “5′-cap-trinucleotide- or higher oligonucleotide compounds and their use in stabilizing RNA, expressing proteins in therapy” (BioNTech RNA Pharmaceuticals GmbH, priority 2018, dated 2025).

Legend:
Balb/c mice = assay: Luciferase mRNA expression in vivo, bioluminescence imaging after intravenous application; details: 10 μg RNA per mouse, i.v.
[1] = tested on: human immature dendritic cells (hiDCs); assay: Luciferase reporter mRNA translation in human immature dendritic cells; assay type: cell-based; details: co-transcriptionally capped Luciferase mRNA, 700 ng per well, liposome formulated, recorded over 72 h
Protocol: As a functional assay of cap analog incorporation, and as a test of translatability of the resulting cap structure, differently capped mRNA encoding a Luciferase reporter was transfected into human immature dendritic cells (hiDCs). For that, 700 ng capped RNA per well were formulated with liposomes as described in Kranz et al., Nature 534, 396-401 (2016), and added to a 96-well containing 5E04 hiDCs. Subsequently, reporter activity was recorded over 72 h.

Substance	in vivo luciferase protein levels compared to all cap0 RNAs (Balb/c mice; all time points)	in vivo luciferase protein levels compared to enzymatically capped cap1 mRNA (Balb/c mice; at the other time points)	translation in hiDCs (luciferase reporter activity) relative to mRNA capped with the corresponding D1 or D2 diastereomer of beta-S-ARCA [1]
m2^7,2′-OGppSpm^2′-OGpG [Compound 1]	always higher levels	only slightly lower levels	–
m2^7,2′-OGppSpm^2′-OGpG [Compound 1 (D1)]	–	–	comparable levels
